From BindingDB's records for doi:10.1021/acschembio.5b01047 (National Institutes of Health, 2016) come the findings set out here.

What all share (conditions): pH 7.5
Experiment [1] addresses T1, Tyrosyl-DNA phosphodiesterase 2 (Mus musculus, UniProt Q9JJX7).
T1 sequence (Q9JJX7 whole entry): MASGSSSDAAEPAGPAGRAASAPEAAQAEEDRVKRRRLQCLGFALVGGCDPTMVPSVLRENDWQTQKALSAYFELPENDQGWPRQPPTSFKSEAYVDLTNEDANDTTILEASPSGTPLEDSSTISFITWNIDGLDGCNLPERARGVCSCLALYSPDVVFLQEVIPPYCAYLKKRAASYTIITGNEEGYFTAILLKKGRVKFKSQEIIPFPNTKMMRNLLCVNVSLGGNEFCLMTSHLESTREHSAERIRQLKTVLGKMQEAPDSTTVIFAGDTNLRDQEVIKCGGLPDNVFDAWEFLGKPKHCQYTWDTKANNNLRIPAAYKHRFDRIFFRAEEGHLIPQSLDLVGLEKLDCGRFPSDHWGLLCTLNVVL
The experiment in a line: Recombinant TDP2 Assay. On the procedure:
(§1) TDP2 reactions were carried out as described previously23 with the following modifications.

Experiment [2] has as its target T2, Tyrosyl-DNA phosphodiesterase 2 (Homo sapiens, UniProt O95551).
T2 sequence (O95551 whole entry): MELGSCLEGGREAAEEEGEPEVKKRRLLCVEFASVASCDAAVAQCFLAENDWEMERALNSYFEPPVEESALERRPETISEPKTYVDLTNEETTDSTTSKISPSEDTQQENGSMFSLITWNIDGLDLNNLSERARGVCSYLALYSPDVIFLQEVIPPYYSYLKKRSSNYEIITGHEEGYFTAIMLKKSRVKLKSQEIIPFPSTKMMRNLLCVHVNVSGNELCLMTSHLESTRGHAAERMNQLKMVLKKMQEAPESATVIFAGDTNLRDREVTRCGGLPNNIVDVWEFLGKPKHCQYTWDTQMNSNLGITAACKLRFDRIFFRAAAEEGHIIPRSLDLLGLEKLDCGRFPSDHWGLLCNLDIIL
The experiment in a line: Recombinant TDP2 Assay. On the procedure:
as §1

The target in experiment [3] is Tyrosyl-DNA phosphodiesterase 2 [E242G,S244A,Q278R,I281T,K282R,R316G,P318T,Y321C] (Mus musculus, UniProt Q9JJX7, E242G/I281T/K282R/P318T/Q278R/R316G/S244A/Y321C). In words: Recombinant TDP2 Assay. On the procedure:
as §1

In experiment [4] the target is T3, Tyrosyl-DNA phosphodiesterase 2 [E242G,S244A,Q278R,I281T,K282R,R316G,P318T,Y321CH323L] (Mus musculus, UniProt Q9JJX7, E242G/I281T/K282R/P318T/Q278R/R316G/S244A/Y321CH323L).
T3 sequence (Q9JJX7 whole entry): T1 sequence (Q9JJX7 whole entry) with E242G, S244A, Q278R, I281T, K282R, R316G, P318T, Y321C, H323L
The experiment in a line: Recombinant TDP2 Assay. On the procedure:
as §1

Experiment [5] addresses T2, Tyrosyl-DNA phosphodiesterase 2. In words: TDP2 Assays with Whole Cell Extracts. On the procedure: Cell pellets were then resuspended in 100 uL of CelLytic M cell lysis reagent (SIGMA-Aldrich C2978). After 15 min on ice, lysates were centrifuged at 12 000g for 10 min, and supernatants were transferred to a new tube. Protein concentrations were determined using a Nanodrop spectrophotometer (Invitrogen), and whole cell extracts were stored at -80 °C. […] Reactions were terminated and samples analyzed.

Residue numbers refer to the chain shown, from its start.

Sequence of Tyrosyl-DNA phosphodiesterase 2 [E242G,S244A,Q278R,I281T,K282R,R316G,P318T,Y321C] (Q9JJX7 whole entry E242G/S244A/Q278R/I281T/K282R/R316G/P318T/Y321C): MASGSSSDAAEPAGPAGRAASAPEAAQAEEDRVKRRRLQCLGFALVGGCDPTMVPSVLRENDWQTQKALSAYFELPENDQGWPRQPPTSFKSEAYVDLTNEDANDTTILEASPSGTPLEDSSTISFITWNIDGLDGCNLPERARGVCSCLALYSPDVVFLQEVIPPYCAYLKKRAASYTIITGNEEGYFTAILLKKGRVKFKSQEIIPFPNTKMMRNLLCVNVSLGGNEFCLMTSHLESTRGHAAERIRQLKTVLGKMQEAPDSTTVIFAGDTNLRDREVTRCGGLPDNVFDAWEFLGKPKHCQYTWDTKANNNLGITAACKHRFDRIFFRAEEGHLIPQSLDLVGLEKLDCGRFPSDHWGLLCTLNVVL

Regarding `O=c1nc2n(-c3ccc(O)cc3)c3cc(Cl)ccc3cc-2c(=O)[nH]1`, the IC50 was over 111 µM in experiment [1]; 3.9 µM in experiment [2]; 35 µM in experiment [3]; 4 µM in experiment [4]; 2.3 µM in experiment [5].

Consider `N#Cc1ccc2cc3c(=O)[nH]c(=O)nc-3n(-c3ccc(O)cc3)c2c1`, for which the IC50 in experiment [1] was over 111 µM; in experiment [3], 1.1 µM; in experiment [4], 0.17 µM.
